Patent publication US10350206B2, “Benzyl substituted indazoles as BUB1 inhibitors” (Bayer Pharma Aktiengesellschaft, priority 2014, dated 2019)
pIC50: −log10 of the molar value. Read-outs that look alike come from different tables or passages of the source.

Key:
[1] = tested on: Bub1 kinase (pre-induced phospho-histone 2A); experiment: H2A Abrogation-Assay (cell-based mechanistic assay, pre-treatment with Nocodazole); details: read-out: Biological Assay 4.2: H2A Abrogation IC50
Experimental: Biological Assay 4.2: Abrogation-Assay
Cell-Based Mechanistic Assay: Changes of Phosphorylation Status of Pre-Induced Phospho-Histone 2A by Inhibition of Kinase Activity of Bub1
This assay measures the inhibition of histone 2A phosphorylation, which was induced by pre-treatment of the cells with Nocodazole, by a Bub1 kinase inhibitor. 25000 cells (cells were ordered from ATCC) were seeded in 96 well plate for 5 h at 37° C. Cells were treated with Nocodazole (1 μg/ml). After 16h varying concentrations (between 3 nM and 10 μM) of test compounds were added and the cells were incubated for another 1h. Cells were fixed (20 min, Fixing solution R&D), washed three times with PBS and blocked with Odyssey blocking buffer before incubating with the primary antibody against phosphorylated H2A (5 μg/ml ABIN482721) overnight at 2-8° C. After washing, secondary IRDye-labeled antibody mix with cell stains was added for 1h and washed again with PBS. Plates were scanned with LiCor Odyssey Infrared Imager CLx at 800 nm for P-H2A and at 700 nm for cell stains Draq5/Sapphire. The quotient of 800 nm and 700 nm for Nocodazole only treated cells was set as 100% and the quotient of 800 nm and 700 nm of untreated cells was set as 0%. […] The IC50 values were determined by means of a 4 parameter fit.
(§1) Histone H2A is an immediate intracellular substrate of Bub1 kinase. Determination of the phosphorylation status of Histone H2A provides a direct measure of the intracellular activity of Bub1 kinase.

[2] = tested on: HeLa human cervical tumor cells; experiment: Proliferation assay (HeLa cell line); type: cell-based; details: 96 h, 4 days incubation, crystal violet, read-out: Biological Assay 2: Proliferation assay (HeLa cell line) median IC50
Experimental: Human tumour cells were originally obtained from the American Type Culture Collection (ATCC), the Deutsche Sammlung von Mikroorganismen und Zellkulturen (DSMZ, German Collection of Microorganisms and Cell Cultures), or Epo GmbH Berlin. Cultivated HeLa human cervical tumor cells (DSMZ ACC-57) were plated at a density of 3000 cells/well in a 96-well multititer plate in 200 μL of growth medium supplemented 10% fetal calf serum. After 24 hours, the cells of one plate (zero-point plate) were stained with crystal violet (see below), while the medium of the other plates was supplemented with the test substances in various concentrations (0 μM, as well as in the range of 0.001-10 μM; the final concentration of the solvent dimethyl sulfoxide was adjusted to 0.1%) using a Hewlett-Packard HP D300 Digital Dispenser. The cells were incubated for 4 days in the presence of test substances. […] After three washing cycles of the fixed cells with water, the plates were dried at room temperature. The cells were stained by adding 100 μL/measuring point of a 0.1% crystal violet solution (pH 3.0). After three washing cycles of the stained cells with water, the plates were dried at room temperature. The dye was dissolved by adding 100 μL/measuring point of a 10% acetic acid solution. […] The change of cell number, in percent, was calculated by normalization of the measured values to the absorption values of the zero-point plate (=0%) and the absorption of the untreated (0 μm) cells (=100%). The IC50 values were determined by means of a 4 parameter fit.

[3] = target: T1, catalytic domain of human Bub1 (amino acids 704-1085) (Homo sapiens, UniProt O43683); experiment: Bub1 kinase assay (TR-FRET); type: biochemical; details: 10 μM ATP, 60 min reaction, pH 7.5; read-out: Biological Assay 1: Bub1 kinase assay median IC50
T1 construct: catalytic domain of human Bub1 (amino acids 704-1085); His6 (N); made in house; host or cells: Hi5 insect cells
Experimental: To this end, 100-fold concentrated compound solutions (in DMSO) were previously prepared by serial dilution (1:3.4) of 2 mM stocks in a clear low volume 384-well source microtiter plate (Greiner Bio-One, Frickenhausen, Germany), from which 50 nL of compounds were transferred into a black low volume test microtiter plate from the same supplier. […] The resulting mixture (5 μL final volume) was incubated at 22° during 60 min., and the reaction was stopped by the addition of 5 μL of an aqueous EDTA-solution (50 mM EDTA, in 100 mM HEPES pH 7.5 and 0.2% (w/v) bovine serum albumin) which also contained the TR-FRET detection reagents (0.2 μM streptavidin-XL665 [Cisbio Bioassays, Codolet, France] and 1 nM anti-phosho-Serine antibody [Merck Millipore, cat. #35-001] and 0.4 nM LANCE EU-W1024 labeled anti-mouse IgG antibody [Perkin-Elmer, product no. AD0077, alternatively a Terbium-cryptate-labeled anti-mouse IgG antibody from Cisbio Bioassays can be used]). The stopped reaction mixture was further incubated 1 h at 22° C. in order to allow the formation of complexes between peptides and detection reagents. Subsequently, the amount of product was evaluated by measurement of the resonance energy transfer from the Eu-chelate-antibody complex recognizing the Phosphoserine residue to the streptavidin-XL665 bound to the biotin moiety of the peptide. […] IC50 values were calculated by fitting the normalized inhibition data to a 4-parameter logistic equation (Minimum, Maximum, IC50, Hill; Y=Max+(Min−Max)/(1+(X/IC50)Hill)).

[4] = tested on: HeLa human cervical tumor cells; experiment: Proliferation Assay (HeLa+Paclitaxel); type: cell-based; details: 3 nM paclitaxel, test substance 92 hours; read-out: Biological Assay 3: Proliferation Assay (HeLa + Paclitaxel) IC50
Experimental: Proliferation Assay (HeLa+Paclitaxel):
Cultivated HeLa human cervical tumor cells (DSMZ ACC-57) were plated at a density of 3000 cells/well in a 96-well multititer plate in 200 μL of growth medium supplemented 10% fetal calf serum. After 24 hours, the cells of one plate (zero-point plate) were stained with crystal violet (see below). The medium of the other plates was supplemented with 3 nM of paclitaxel (Sigma-Aldrich) and the cells were incubated at 37° C. After 4 hours the test substances were added in various concentrations (0 μM, as well as in the range of 0.001-10 μM; the final concentration of the solvent dimethyl sulfoxide was adjusted to 0.1%) using a Hewlett-Packard HP D300 Digital Dispenser. The cells were incubated for another 92 hours at 37° C. in the presence of test substances. […] After three washing cycles of the fixed cells with water, the plates were dried at room temperature. The cells were stained by adding 100 μL/measuring point of a 0.1% crystal violet solution (pH 3.0). After three washing cycles of the stained cells with water, the plates were dried at room temperature. The dye was dissolved by adding 100 μL/measuring point of a 10% acetic acid solution. […] The change of cell number, in percent, was calculated by normalization of the measured values to the absorption values of the zero-point plate (=0%) and the 5 absorption of the untreated (0 μm) cells (=100%). The IC50 values were determined by means of a 4 parameter fit.

[5] = tested on: Bub1 kinase (histone 2A phosphorylation); experiment: H2A Formation-Assay (cell-based mechanistic assay, co-treatment with Nocodazole); details: 16 h, Nocodazole 1 μg/ml together with test compound for 16 h; read-out: Biological Assay 4.1: H2A Formation IC50
Experimental: Biological Assay 4.1: Formation-Assay
Cell-Based Mechanistic Assay: Changes of Phosphorylation Status of Histone 2A by Inhibition of Kinase Activity of Bub1
This assay determines the suppression of histone 2A phosphorylation by a Bub1 kinase inhibitor during co-treatment with Nocodazole. 25000 cells (cells were ordered from ATCC) were seeded in 96 well plate for 5 h at 37° C. Cells were treated with Nocodazole (1 μg/ml) and varying concentrations (between 3 nM and 10 μM) of test compounds for 16h. Cells were fixed (20 min, Fixing solution R&D), washed three times with PBS and blocked with Odyssey blocking buffer before incubating with the primary antibody against phosphorylated H2A (5 μg/ml ABIN482721) overnight at […]. After washing, secondary IRDye-labeled antibody mix with cell stains was added for 1h and washed again with PBS. Plates were scanned with LiCor Odyssey Infrared Imager CLx at 800 nm for P-H2A and at 700 nm for cell stains Draq5/Sapphire. The quotient of 800 nm and 700 nm for Nocodazole only treated cells was set as 100% and the quotient of 800 nm and 700 nm of untreated cells was set as 0%. […] The IC50 values were determined by means of a 4 parameter fit.
as §1

[6] = Nocodazole 1 μg/ml 16 h, then test compound 1 h

T1 sequence (O43683 704-1085): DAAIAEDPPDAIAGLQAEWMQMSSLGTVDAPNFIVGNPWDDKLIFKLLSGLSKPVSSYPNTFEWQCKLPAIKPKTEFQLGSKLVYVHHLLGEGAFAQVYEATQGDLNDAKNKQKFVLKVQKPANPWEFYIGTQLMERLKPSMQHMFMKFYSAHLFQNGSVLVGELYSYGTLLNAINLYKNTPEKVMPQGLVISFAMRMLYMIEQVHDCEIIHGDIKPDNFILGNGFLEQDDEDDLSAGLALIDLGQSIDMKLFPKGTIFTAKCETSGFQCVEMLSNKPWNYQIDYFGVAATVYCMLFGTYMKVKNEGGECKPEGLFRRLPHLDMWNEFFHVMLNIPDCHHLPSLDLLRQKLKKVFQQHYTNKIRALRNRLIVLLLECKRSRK

Row | pIC50 [1, 6] | pIC50 [2] | pIC50 [3] | pIC50 [4] | pIC50 [5] | pIC50 [1] | Compound
1 | 6.05 | 5.07 | 8.11 | 6.43 | 7.25 |  | COc1cnc(-c2nn(Cc3c(F)cc(OCCO)cc3F)c3ccccc23)nc1Nc1ccncc1F [Example 2-1-6, 2-{3,5-difluoro-4-[(3-{4-[(3-fluoropyridin-4-yl)amino]-5-methoxypyrimidin-2-yl}-1H-indazol-1-yl)methyl]phenoxy}ethanol]
2 | 8.00 | 5.39 | 7.89 | 6.62 | 7.03 |  | COc1cnc(-c2nn(Cc3c(F)cc(OCCO)cc3F)c3ccccc23)nc1Nc1ccncc1Cl [Example 2-1-1, 2-{4-[(3-{4-[(3-chloropyridin-4-yl)amino]-5-methoxypyrimidin-2-yl}-1 H-indazol-1-yl)methyl]-3,5-difluorophenoxy}ethanol]
3 |  |  | 7.89 |  |  |  | COc1cnc(-c2nn(Cc3c(F)cc(OCCO)cc3F)c3ccccc23)nc1Nc1ccncc1C1CC1 [Example 2-1-9, 2-{4-[(3-{4-[(3-cyclopropylpyridin-4-yl)amino]-5-methoxypyrimidin-2-yl}-1H-indazol-1-yl)methyl]-3,5-difluorophenoxy}ethanol]
4 |  | < 5.00 | 7.51 | 6.92 |  |  | COc1cnc(-c2nn(Cc3c(F)cc(OCCO)cc3F)c3ccccc23)nc1Nc1cc(C)ncc1C [Example 2-1-8, 2-{4-[(3-{4-[(2,5-dimethylpyridin-4-yl)amino]-5-methoxypyrimidin-2-yl}-1H-indazol-1-yl)methyl]-3,5-difluorophenoxy}ethanol]
5 | 8.01 | 6.00 | 8.00 | 7.26 |  |  | COc1cnccc1Nc1nc(-c2nn(Cc3c(F)cc(OCCCO)cc3F)c3ccccc23)ncc1OC [Example 2-3-2, 3-{3,5-difluoro-4-[(3-{5-methoxy-4-[(3-methoxypyridin-4-yl)amino]pyrimidin-2-yl}-1H-indazol-1-yl)methyl]phenoxy}propan-1-ol]
6 |  | 5.04 | 7.64 | 6.32 | 7.57 |  | COc1cnc(-c2nn(Cc3c(F)cc(OCCO)cc3F)c3ccccc23)nc1Nc1ccnc(C(F)F)c1 [Example 2-1-7, 2-(4-{[3-(4-{[2-(difluoromethyl)pyridin-4-yl]amino}-5-methoxypyrimidin-2-yl)-1H-indazol-1-yl]methyl}-3,5-difluorophenoxy)ethanol]

More lines, now with the values behind:

Row | Compound | pIC50 [1, 6] | pIC50 [2] | pIC50 [3] | pIC50 [4] | pIC50 [5] | pIC50 [1]
7 | COc1cnc(-c2nn(Cc3c(F)cc(OCCO)cc3F)c3ccccc23)nc1Nc1ccnc(NC(C)=O)c1 [Example 2-1-4, N-{4-[(2-{1-[2,6-difluoro-4-(2-hydroxyethoxy)benzyl]-1H-indazol-3-yl}-5-methoxypyrimidin-4-yl)amino]pyridin-2-yl}acetamide] | 6.82 | < 5.00 | 8.08 | 7.00 | 8.09 | 
8 | CCOc1cc(F)c(Cn2nc(-c3ncc(OCCOCCNC(=S)Nc4ccc(-c5c6ccc(=O)cc-6oc6cc(O)ccc56)c(C(=O)O)c4)c(Nc4ccncc4)n3)c3ccccc32)c(F)c1 [Example 6-5-1, 5-[({2-[2-({2-[1-(4-ethoxy-2,6-difluorobenzyl)-1H-indazol-3-yl]-4-(pyridin-4-ylamino)pyrimidin-5-yl}oxy)ethoxy]ethyl}carbamothioyl)amino]-2-(6-hydroxy-3-oxo-3H-xanthen-9-yl)benzoic acid, reference compound] |  |  | 7.68 |  |  | 
9 | COc1cnc(-c2nn(Cc3c(F)cc(OCCO)cc3F)c3ccccc23)nc1Nc1cc(C)nc(C)n1 [Example 2-4-1, 2-{4-[(3-{4-[(2,6-dimethylpyrimidin-4-yl)amino]-5-methoxypyrimidin-2-yl}-1H-indazol-1-yl)methyl]-3,5-difluorophenoxy}ethanol] |  |  | 7.43 |  |  | 
10 | COc1cnc(C)cc1Nc1nc(-c2nn(Cc3c(F)cc(OCCO)cc3F)c3ccccc23)ncc1OC [Example 2-1-19, 2-{3,5-difluoro-4-[(3-{5-methoxy-4-[(5-methoxy-2-methylpyridin-4-yl)amino]pyrimidin-2-yl}-1H-indazol-1-yl)methyl]phenoxy}ethanol] |  | < 5.00 | 7.02 | 6.85 |  | 
11 | COc1cnc(-c2nn(Cc3c(F)cc(OCCOC(C)=O)cc3F)c3ccccc23)nc1Nc1ccncc1 [Example 6-3-1, 2-[3,5-difluoro-4-({3-[5-methoxy-4-(pyridin-4-ylamino)pyrimidin-2-yl]-1H-indazol-1-yl}methyl)phenoxy]ethyl acetate, reference compound] |  | 5.48 |  | 6.19 |  | 5.44
